In US6638961B2 (priority 1994, dated 2003):
Several values for one entry are separate records, joined by “and”; a condition that tells them apart may be missing. Equal values may be shown once.

Key:
[1] = system: Plasmopara viticola (vine downy mildew); test: In vivo trial on Plasmopara viticola (vine downy mildew) by preventive treatment at 24 hours, vine cuttings Chardonnay variety; details: dose 3.2 mg/l compound A and/or 12.5 mg/l mancozeb; contamination 24 hours after treatment
Experimental: (§1) A 60 mg suspension is prepared comprising compounds A and B in a liquid mixture consisting of 0.3 ml of a surface-active agent (oleate of a polyoxyethylenated derivative of sorbitan) diluted 10% in water and of 60 ml of water.
(§2) Vine cuttings (Vitis vinifera) Chardonnay variety, are cultivated in pots. When these plants are 2 months old (8 to 10-leaf stage, height 10 to 15 cm), they are treated by spraying using the above suspension.
(§3) Plants used as controls are treated with a similar suspension but not containing any active substance (formulation blank).
(§4) After drying for 72 hours, each plant is contaminated by spraying an aqueous Plasmopara viticola spore suspension obtained from sporulated leaves contaminated 7 days earlier. These spores are suspended in an amount of 100,000 units per cm^3.
(§5) The contaminated plants are then incubated for two days at about 18° C., in an atmosphere saturated with moisture, and then for 5 days at 20-22° C. under a relative humidity of 90-100%.
Example 2 is repeated using as component B mancozeb, using A and B concentrations in the suspension for treating the plants equal to 3.2 and 12.5 mg/l respectively, and finally carrying out the contamination 24 hours after the treatment.
The efficacy measured, as well as the efficacy of products A and B alone measured under the same conditions, is indicated in the table below. […]

[2] = system: Plasmopara viticola (vine downy mildew); test: In vivo trial on Plasmopara viticola (vine downy mildew) by preventive treatment at 72 hours, vine cuttings Chardonnay variety
Experimental: as §1, §2, §3, §4, §5

[3] = system: Phytophthora infestans (tomato blight); assay type: in vivo; details: for dose of the active substance alone which it is necessary to apply to obtain the destruction of 90% of the pest: applied alone, tomato plants sprayed 48 hours before contamination, reading 7 days after contamination

Molecule	Efficacy (in %) [1] [%]	dose of the active substance alone which it is necessary to apply to obtain the destruction of 90% of the pest ([2]; applied alone, vine plants sprayed 72 hours before contamination, reading 7 days after contamination) [mg/L]	dose of the active substance alone which it is necessary to apply to obtain the destruction of 90% of the pest [3]	efficacy when applied alone ([2]; applied alone under the trial conditions, preventive 72 hours, 90% destruction level (FIG. 2))	efficacy when applied alone ([3]; applied alone under the trial conditions, preventive 48 hours, 90% destruction level (FIG. 1))
mancozeb	0	–	–	–	–
CSC1=N[C@@](C)(c2ccccc2)C(=O)N1Nc1ccccc1 [Compound A, (4S)-4-methyl-2-methylthio-4-phenyl-1-phenylamino-2-imidazolin-5-one]	80.8	20	309 mg/L and 163 mg/L	–	–
CCN(C)C(=O)c1ccc(C(F)(F)F)cc1-c1ccc(OC)c(OC)c1 [N-methyl-N-ethyl-2-(3,4-dimethoxyphenyl)-4-trifluoromethylbenzamide]	–	–	166 mg/L	–	–
CCO[PH](=O)O [fosetyl-Al]	–	–	–	not effective	not effective
